In PMC5787524, “Discovery of a FLT3 inhibitor LDD1937 as an anti-leukemic agent for acute myeloid leukemia” (Oncotarget, 2017):
Where two headings read alike, the source gives them in different places.

Legend:
leukemic cells = test: Differentiation of leukemic cells (Wright-Giemsa staining); format: cell-based; details: data not shown
cellular senescence = test: Senescence-associated β-galactosidase assay (SA-β-gal); format: cell-based; details: data not shown
FLT3 = target: T1, FLT3 (Homo sapiens, UniProt P36888); test: In vitro FLT3 kinase assay (HTRF); format: biochemical
T1 construct: Recombinant proteins containing the FLT3 kinase domain were purchased from Carna biosciences (Japan); purchased Carna biosciences (Japan)
T1 sequence (P36888 610-943 limits assumed): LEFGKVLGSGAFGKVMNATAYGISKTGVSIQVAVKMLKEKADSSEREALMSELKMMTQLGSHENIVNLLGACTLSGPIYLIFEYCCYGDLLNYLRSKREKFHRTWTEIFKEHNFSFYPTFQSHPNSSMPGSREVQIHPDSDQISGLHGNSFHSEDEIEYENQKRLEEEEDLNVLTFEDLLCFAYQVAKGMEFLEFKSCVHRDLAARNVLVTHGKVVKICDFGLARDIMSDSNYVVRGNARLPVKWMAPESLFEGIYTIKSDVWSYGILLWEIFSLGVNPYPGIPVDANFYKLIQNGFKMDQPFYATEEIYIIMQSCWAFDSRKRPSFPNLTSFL
Procedure: The inhibition of the FLT3 kinase activity was measured with homogeneous, time-resolved fluorescence (HTRF) assays. Recombinant proteins containing the FLT3 kinase domain were purchased from Carna biosciences (Japan). Optimal enzyme, ATP, and substrate concentrations were established with the HTRF KinEASE kit (Cisbio, France) according to the manufacturer’s instructions. The FLT3 enzymes were mixed with serially diluted compounds and peptide substrates in a kinase reaction buffer (50 mM HEPES (pH 7.0), 500 μM ATP, 0.1 mM sodium orthovanadate, 5 mM MgCl2, 1 mM DTT, 0.01% bovine serum albumin (BSA), and 0.02% NaN3). After the addition of the reagents for detection, the TR-FRET signal was measured with a Victor multilabel reader (Perkin Elmer, Waltham, MA, USA). […] JAK2, JAK3, cMET, and RET in vitro kinase assays were also carried out using the HTRF assay kit.

JAK2 = JAK2 (Homo sapiens, UniProt O60674); test: In vitro JAK2 kinase assay (HTRF); format: biochemical; details: mean ± S.D.
Procedure: The inhibition of the FLT3 kinase activity was measured with homogeneous, time-resolved fluorescence (HTRF) assays. Recombinant proteins containing the FLT3 kinase domain were purchased from Carna biosciences (Japan). Optimal enzyme, ATP, and substrate concentrations were established with the HTRF KinEASE kit (Cisbio, France) according to the manufacturer’s instructions. The FLT3 enzymes were mixed with serially diluted compounds and peptide substrates in a kinase reaction buffer (50 mM HEPES (pH 7.0), 500 μM ATP, 0.1 mM sodium orthovanadate, 5 mM MgCl2, 1 mM DTT, 0.01% bovine serum albumin (BSA), and 0.02% NaN3). After the addition of the reagents for detection, the TR-FRET signal was measured with a Victor multilabel reader (Perkin Elmer, Waltham, MA, USA). The IC50 was calculated with nonlinear regression using Prism version 5.01 (GraphPad). JAK2, JAK3, cMET, and RET in vitro kinase assays were also carried out using the HTRF assay kit.

PC-3 cells = test: Cell viability / growth inhibition (EZ-Cytox), PC-3; format: cell-based; details: Homo sapiens, Table 2, 72 h
Procedure: MV-4-11 human acute myeloid leukemia cells were purchased from the American Type Culture Collection (ATCC, Rockville, MD, USA, CRL-9591), and the cells were cultured in IMDM medium (Sigma Co., St. Louis, MO, USA) supplemented with 10% fetal bovine serum, 1% penicillin/streptomycin and 4 mM L-glutamine (Life Technology, Grand Island, NY). Jurkat (human acute T lymphocytic leukemia, ATCC TIB-152) and K562 (human chronic myelogenous leukemia, ATCC CCL-243) cells were cultured in RPMI-1640 (Sigma Co.), and MCF7 (human breast adenocarcinoma, ATCC HTB-22) and PC-3 (human prostate adenocarcinoma, ATCC CRL-1435) cells were cultured in DMEM (Sigma Co.) medium supplemented with 10% fetal bovine serum and 1% penicillin/streptomycin. The cultured cells were incubated at 37°C with 5% CO2. Cell viability was assessed with a tetrazolium-based assay using the EZ-Cytox Cell Viability Assay kit (DaeilLab, Korea). Briefly, 2,000 ∼ 15,000 cells were plated in 96-well flat bottom plates in 100 µl of medium. The next day, the cells were treated with compounds along with dimethyl sulfoxide (DMSO, Fisher, Waltham, MA, USA) as a negative control. […] After incubation, the optical density (OD) was measured at a wavelength of 450 nm with a Victor multilabel reader (Perkin Elmer, Waltham, MA, USA). The IC50 was calculated with nonlinear regression using Prism version 5.01 (GraphPad, La Jolla, CA, USA).

IRAK4 = target: T2, IRAK4 (Homo sapiens, UniProt Q9NWZ3); test: In vitro IRAK4 kinase assay (LANCE Ultra); format: biochemical
T2 sequence (Q9NWZ3 1-460): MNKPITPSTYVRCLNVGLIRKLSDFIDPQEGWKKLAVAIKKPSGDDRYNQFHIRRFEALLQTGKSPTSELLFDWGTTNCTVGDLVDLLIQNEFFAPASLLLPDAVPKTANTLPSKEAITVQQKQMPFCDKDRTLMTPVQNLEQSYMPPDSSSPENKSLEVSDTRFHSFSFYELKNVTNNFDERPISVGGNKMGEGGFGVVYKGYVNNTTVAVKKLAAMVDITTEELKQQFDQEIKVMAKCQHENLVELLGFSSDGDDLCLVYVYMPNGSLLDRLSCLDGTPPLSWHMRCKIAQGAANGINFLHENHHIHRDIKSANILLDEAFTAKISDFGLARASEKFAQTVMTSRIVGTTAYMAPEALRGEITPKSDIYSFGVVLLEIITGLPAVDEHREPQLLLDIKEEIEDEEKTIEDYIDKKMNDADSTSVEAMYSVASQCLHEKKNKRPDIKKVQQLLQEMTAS
Procedure: The in vitro kinase assay for IRAK4 was done with the LANCE Ultra Kinase Activity Assay (Perkin Elmer) containing the ULight-p70S6K (Thr389) peptide (phosphorylation motif […]). The assays consisted of the enzyme mixed with serially diluted compounds, 50 nM ULight-p70S6K (Thr389) peptide, and 500 μM ATP prediluted in kinase buffer (50 mM HEPES (pH 7.5), 10 mM MgCl2, 1 mM EGTA, 2 mM DTT, and 0.01% Tween20). Ten microliters of the total volume of the kinase reaction were added to the wells of a 96-well assay plate. The kinase reactions were incubated for 90 min. at 25°C and stopped by the addition of 10 mM EDTA. For the detection of the phospho-substrate, the Eu-anti-phospho-p70S6K (Thr389) antibody diluted in detection buffer was added to a final concentration of 2 nM, and the reactions were then incubated for 1 h at 25°C. The signal was measured on an EnVision multi-label reader.

Sequence of JAK2 (O60674 whole entry, species assumed, the tested form may be a part): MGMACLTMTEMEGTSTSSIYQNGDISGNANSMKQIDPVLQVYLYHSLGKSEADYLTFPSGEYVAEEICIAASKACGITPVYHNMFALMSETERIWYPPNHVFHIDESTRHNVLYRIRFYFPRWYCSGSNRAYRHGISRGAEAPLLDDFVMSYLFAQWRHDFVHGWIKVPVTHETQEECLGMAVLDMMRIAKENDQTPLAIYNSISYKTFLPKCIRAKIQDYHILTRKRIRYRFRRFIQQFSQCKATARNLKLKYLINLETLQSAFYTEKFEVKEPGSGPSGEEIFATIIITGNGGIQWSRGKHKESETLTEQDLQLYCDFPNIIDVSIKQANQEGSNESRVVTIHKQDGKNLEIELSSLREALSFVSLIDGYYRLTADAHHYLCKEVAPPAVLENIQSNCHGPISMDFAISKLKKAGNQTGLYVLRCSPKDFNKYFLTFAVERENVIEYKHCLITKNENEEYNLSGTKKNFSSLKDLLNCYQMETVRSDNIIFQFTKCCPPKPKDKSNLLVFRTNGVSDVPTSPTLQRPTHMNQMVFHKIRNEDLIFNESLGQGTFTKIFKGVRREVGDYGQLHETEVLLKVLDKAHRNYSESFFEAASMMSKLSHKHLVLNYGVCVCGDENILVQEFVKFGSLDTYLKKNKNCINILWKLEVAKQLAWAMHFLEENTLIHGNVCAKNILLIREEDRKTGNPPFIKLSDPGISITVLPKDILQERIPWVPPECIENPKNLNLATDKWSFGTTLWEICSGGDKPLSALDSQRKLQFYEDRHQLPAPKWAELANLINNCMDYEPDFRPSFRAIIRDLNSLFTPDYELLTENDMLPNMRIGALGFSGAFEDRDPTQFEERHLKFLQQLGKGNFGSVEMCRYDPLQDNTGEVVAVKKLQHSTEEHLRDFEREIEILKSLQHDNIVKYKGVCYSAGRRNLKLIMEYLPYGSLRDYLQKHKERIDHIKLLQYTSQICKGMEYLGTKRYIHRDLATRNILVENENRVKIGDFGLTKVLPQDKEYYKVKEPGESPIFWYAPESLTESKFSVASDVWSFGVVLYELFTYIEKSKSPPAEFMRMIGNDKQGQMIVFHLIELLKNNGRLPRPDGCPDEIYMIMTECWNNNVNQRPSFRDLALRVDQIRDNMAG

Q: Which results are given for `COC(=O)c1ccc2c(c1)/C(=C1/Nc3ccccc3/C1=N\OCCN1CCNCC1)C(=O)N2.Cl.Cl` [LDD1937, methyl (2Z,3E)-2′-oxo-3-((2-(piperazin-1-yl)ethoxy)imino)-[2,3′-biindolinylidene]-5′-carboxylate dihydrochloride]?
A: differentiated cells (Wright-Giemsa staining) (leukemic cells): differentiated cells were not observed; SA-β-gal (cellular senescence) (cellular senescence): did not change; IC50 (FLT3; Table 1, mean ± S.D., read-out: IC50 FLT3): 3 ± 0.525 nM; IC50 (FLT3; recombinant FLT3, HTRF, read-out: IC50 FLT3 kinase activity): 3 ± 0.53 nM; IC50 (JAK2): 523 ± 72.7 nM; GI50 (PC-3 cells): 1100 ± 140 nM; IC50 (IRAK4): 300 nM
